The values that follow come from ChEMBL document CHEMBL1126146, “Synthesis and muscarinic activity of quinuclidinyl- and (1-azanorbornyl)pyrazine derivatives” (J Med Chem, 1992).

The target of experiment [1] is T1, Muscarinic acetylcholine receptor (Rattus norvegicus) (UniProt P08482+P08483+P08485+P08911+P10980).
Description: In vitro binding affinity against cortical muscarinic acetylcholine receptor measured by displacement of [3H]OXO-M.
The target of experiment [2] is T1, Muscarinic acetylcholine receptor (Rattus norvegicus). The source holds these as a separate data set.
Description: In vitro binding affinity against cortical muscarinic acetylcholine receptor measured by displacement of [3H]NMS.

As for `Cc1cnc([C@H]2CN3CCC2C3)c(C)n1` (some centres not stated), the K app in experiment [1] was determined as 0.017 µM; in experiment [2] it was 0.75 µM.

With `Clc1cncc(C2CN3CCC2C3)n1` (configuration not stated), the K app in experiment [1] was 0.00056 µM; in experiment [2], 0.21 µM.

As to `Cc1nc(C)c([C@@H]2CN3CCC2C3)nc1C` (some centres not stated), the figures for the K app in experiment [1] and in experiment [2] were 0.25 µM and 1.6 µM, respectively.

Consider `CCc1cncc(C2CN3CCC2C3)n1` (stereo in doubt; 27b), for which the K app is 0.0021 µM in experiment [1] and 0.15 µM in experiment [2].

For the molecule `Cc1cnc(C)c(C2CN3CCC2CC3)n1` (configuration not stated), the K app in experiment [1] was found to be 0.026 µM; in experiment [2], 0.26 µM.

`CC(C)c1nccnc1C1CN2CCC1C2` (configuration not stated): the K app in experiment [1] stood at 0.022 µM; in experiment [2] it was 0.48 µM.

Turning to `c1cnc([C@@H]2CN3CCCC2C3)cn1` (some centres not stated), the K app in experiment [1] is 0.014 µM; in experiment [2] it was 1.5 µM.

Regarding `Cc1cncc(C2CN3CCC2CC3)n1` (configuration not stated), the K app in experiment [1] is 0.0021 µM; in experiment [2] it was 0.066 µM.

For the molecule `C=CCOc1cncc([C@@H]2CN3CCC2C3)n1` (some centres not stated), the K app in experiment [1] came out at 0.021 µM; in experiment [2], 0.12 µM.

Take `Brc1cncc(C2CN3CCC2CC3)n1` (configuration not stated): the K app worked out at 0.001 µM in experiment [1] and 0.033 µM in experiment [2].

Regarding `CCc1nccnc1[C@H]1CN2CCC1C2` (some centres not stated), the K app in experiment [1] was 0.02 µM; in experiment [2] it was 0.69 µM.

As to `c1cnc([C@@H]2CN3CCC2C3)cn1` (some centres not stated), the values for the K app in experiment [1] and in experiment [2] were 0.0007 µM and 1.6 µM, respectively.

Turning to `Cc1ncc(C2CN3CCC2CC3)nc1C` (configuration not stated), the K app in experiment [1] was 0.0095 µM; in experiment [2] it was 0.078 µM.

In the case of `Cc1ncc([C@H]2CN3CCC2C3)nc1C` (some centres not stated), the K app stood at 0.015 µM in experiment [1] and 0.28 µM in experiment [2].

Molecule `Nc1noc(C2CN3CCC2C3)n1` (stereo in doubt; 3b) had a K app in experiment [1] of 0.0051 µM.

In the case of `CCCc1nccnc1C1CN2CCC1C2` (configuration not stated), the K app was 0.015 µM in experiment [1] and 0.35 µM in experiment [2].

For the molecule `CC(C)Oc1cncc([C@@H]2CN3CCC2C3)n1` (some centres not stated), the K app in experiment [1] worked out at 0.012 µM; in experiment [2], 0.049 µM.

Take `Clc1ccc(C2CN3CCC2CC3)nn1` (configuration not stated): the K app in experiment [1] amounted to 0.098 µM; in experiment [2], 3.5 µM.

As for `Cc1ncc(C2CN3CCC2CC3)cn1` (configuration not stated), the figures for the K app in experiment [1] and in experiment [2] were 0.091 µM and 1.5 µM, respectively.

In the case of `CC(C)Oc1cncc([C@H]2CN3CCC2C3)n1` (some centres not stated), the K app in experiment [1] turned out to be 0.031 µM; in experiment [2] it was 0.13 µM.

With `C=CCOc1cncc([C@H]2CN3CCC2C3)n1` (some centres not stated), the figures for the K app in experiment [1] and in experiment [2] were 0.03 µM and 0.23 µM, respectively.

In the case of `Cc1cncc([C@@H]2CN3CCC2C3)n1` (some centres not stated), the K app in experiment [1] is 0.0015 µM; in experiment [2], 0.47 µM.

As to `CCOc1cncc(C2CN3CCC2CC3)n1` (configuration not stated), the values for the K app in experiment [1] and in experiment [2] were 0.0021 µM and 0.019 µM, respectively.

Turning to `c1ncc(C2CN3CCC2CC3)cn1` (configuration not stated), the K app was determined as 0.16 µM in experiment [1] and 2.8 µM in experiment [2].

For `Cc1cnc(C)c([C@H]2CN3CCC2C3)n1` (some centres not stated), the K app in experiment [1] was 0.011 µM; in experiment [2], 0.19 µM.

Consider `c1cnc([C@H]2CN3CCCC2C3)cn1` (some centres not stated), for which the K app in experiment [1] turned out to be 0.00084 µM; in experiment [2] it was 0.4 µM.

For the molecule `c1cnc([C@H]2CN3CCC2C3)cn1` (some centres not stated), the K app in experiment [1] is below 8.6e-05 µM; in experiment [2], 0.059 µM.

As to `CN(C)c1cncc([C@H]2CN3CCC2C3)n1` (some centres not stated), the K app is 0.057 µM in experiment [1] and 0.86 µM in experiment [2].

On to `Oc1cncc(C2CN3CCC2CC3)n1` (configuration not stated), for which the K app is 0.28 µM in experiment [1] and 27 µM in experiment [2].

On to `Cc1cnc(C)c([C@@H]2CN3CCC2C3)n1` (some centres not stated), for which the results for the K app in experiment [1] and in experiment [2] were 0.13 µM and 3 µM, respectively.

As for `COc1cncc([C@H]2CN3CCC2C3)n1` (some centres not stated), the results for the K app in experiment [1] and in experiment [2] were 0.038 µM and 0.96 µM, respectively.

Regarding `Clc1cncc(C2CN3CCC2CC3)n1` (configuration not stated), the K app came to 0.00087 µM in experiment [1] and 0.051 µM in experiment [2].

Regarding `c1cnc(C2CN3CCC2CC3)cn1` (configuration not stated), the K app in experiment [1] turned out to be 0.00068 µM; in experiment [2], 0.27 µM.

In the case of `CCc1cncc(C2CN3CCC2C3)n1` (stereo in doubt; 27a), the K app in experiment [1] stood at 0.0095 µM; in experiment [2], 0.13 µM.

Take `Cc1cnc([C@@H]2CN3CCC2C3)c(C)n1` (some centres not stated): the K app in experiment [1] was 0.66 µM; in experiment [2] it was 6.2 µM.

With `CN(C)c1cncc([C@@H]2CN3CCC2C3)n1` (some centres not stated), the K app was determined as 0.07 µM in experiment [1] and 0.03 µM in experiment [2].

Regarding `COc1cncc([C@@H]2CN3CCCC2C3)n1` (some centres not stated), the results for the K app in experiment [1] and in experiment [2] were 0.0093 µM and 0.19 µM, respectively.

With `Cc1nc(C)c([C@H]2CN3CCC2C3)nc1C` (some centres not stated), the K app stood at 0.053 µM in experiment [1] and 0.35 µM in experiment [2].

For the molecule `Cc1nccnc1[C@H]1CN2CCC1C2` (some centres not stated), the K app in experiment [1] turned out to be 0.00026 µM; in experiment [2], 0.21 µM.

Regarding `Cc1nccnc1C1CN2CCC1CC2` (configuration not stated), the figures for the K app in experiment [1] and in experiment [2] were 0.01 µM and 1.51 µM, respectively.

On to `Cc1nccnc1[C@@H]1CN2CCC1C2` (some centres not stated), for which the K app in experiment [1] was determined as 0.0016 µM; in experiment [2] it was 5.2 µM.

With `Cc1ncc([C@@H]2CN3CCC2C3)nc1C` (some centres not stated), the K app is 0.013 µM in experiment [1] and 0.53 µM in experiment [2].

On to `C#CCOc1cncc(C2CN3CCC2C3)n1` (configuration not stated), for which the results for the K app in experiment [1] and in experiment [2] were 0.0088 µM and 0.15 µM, respectively.

Turning to `CCc1cncc(C2CN3CCC2CC3)n1` (configuration not stated), the K app in experiment [1] worked out at 0.0017 µM; in experiment [2] it was 0.02 µM.

Take `COc1cncc(C2CN3CCC2CC3)n1` (configuration not stated): the K app was 0.0076 µM in experiment [1] and 0.14 µM in experiment [2].

As for `COc1cncc([C@H]2CN3CCCC2C3)n1` (some centres not stated), the K app came to 0.087 µM in experiment [1] and 1.2 µM in experiment [2].

In the case of `CCc1nccnc1[C@@H]1CN2CCC1C2` (some centres not stated), the K app in experiment [1] is 0.14 µM; in experiment [2], 2.2 µM.

Turning to `COc1cncc([C@@H]2CN3CCC2C3)n1` (some centres not stated), the K app in experiment [1] was 0.0098 µM; in experiment [2], 0.46 µM.

Consider `Cc1cncc([C@H]2CN3CCC2C3)n1` (some centres not stated), for which the figures for the K app in experiment [1] and in experiment [2] were 0.0014 µM and 0.18 µM, respectively.
